Reference: US6667173B2, “Nucleic acids encoding platelet derived growth factor-alpha receptors” (The Schepens Eye Research Institute, priority 2000, dated 2003)
“Also recorded” adds a separate entry of the source.

Legend:
αPDGFR = target: T1, αPDGFR (Homo sapiens, UniProt P16234); assay: Tyrosine phosphorylation of the αPDGFR in TGFβ- or PDGF-treated F cells; assay type: cell-based; conditions: Fα cells; 50 ng/ml PDGF-BB 5 minutes or 1 ng/ml TGFβ1 5 minutes to 8 hours
T1 construct: expressed in transfected cells; host or cells: F cells (SV-40 immortalized mouse embryo fibroblasts lacking both PDGFRs), giving Fα
Protocol: To show the effect of TGFβ on αPDGFR, the tyrosine phosphorylation state of the αPDGFR was assayed in TGFβ-treated cells. The F cells with or without PDGFR were grown to 80% confluent and then starved with DMEM containing 1% FBS for 20 hours. Cells were exposed at 37° C. for 5 minutes to either 50 ng/ml of PDGF-BB; with 1 ng/ml of TGFβ1 for 5 minutes, 1 hour, 2 hours, 4 hours, 6 hours or 8 hours; or were left unstimulated. After treatment the cells were washed twice with H/S (20 mM Hepes, pH 7.4, 150 mM NaCl) and then lysed in EB (10 mM Tris-HCl, pH 7.4, 5 mM EDTA, 50 mM NaCl, 50 mM NaF, 1% Triton-X 100, 0.1% BSA, 20 μg/ml aprotinin, 2 mM Na3VO4, 1 mM phenylmethylsulfonyl fluoride; PMSF). Lysates were centrifuged for 15 minutes at 13,000×g, the pellet was discarded and the soluble fraction was used as the total cell lysate. The protein concentration was measured using protein assay kit (Pierce, Rockfield, Ill.) following the manufacture's instructions.
Receptors were immunoprecipitated from the soluble fraction with the 27P antibody (described above). Immune complex was bound to formalin-fixed membranes of Staphylococcus aureus, spun through an EB sucrose gradient, and washed twice with EB, then with PAN (10 mM Pipes, pH 7.0, 100 mM NaCl, 1% aprotinin)+0.5% Nonidet P-40 (NP-40), and finally with PAN. The samples were resuspended in PAN before using for kinase assay or western blotting. […]

FCX^2, Fα and Fβ cells = assay: Collagen gel contraction assay of cells with no PDGFRs, αPDGFR or βPDGFR; assay type: cell-based, mouse; conditions: 50 ng/ml PDGF-BB; 24, 48, 72 hours
Protocol: The contraction assay was based on a previously described reference, Skuta, G. et al. (1999) J. Biol. Chem. 274:30163, with the following modifications. Fα cells were suspended in 1.5 mg/ml of neutralized collagen I (Cohesion vitrogen 100, Palo Alto, Calif.) at a density of 10^6 cells/ml, and were transferred into the 24-well plate (Falcon, Franklyn Lakes, N.J.) that had been preincubated with phosphate-buffer saline (PBS) with 5 mg/ml of bovine serum albumin (BSA) overnight. The gel was solidified by incubating at 37° C. for 90 minutes, and then the well was flooded with DMEM+5 mg/ml of BSA supplemented with an amount of vitreous such that the final concentration of vitreous in the culture medium was 1, 5 or 20%. […] The media was replaced every 24 hours and the gel diameter was measured after 48 hours. The extent of contraction was calculated by subtracting the diameter of the well at 48 hours from the initial diameter (15 mm). […]
The experiments described in Example 9 (FIG. 7B) were repeated with cells that express the βPDGFR (Fβ) instead of the αPDGFR, or no PDGFRs (FCX^2). Contraction was scored at the 48 hours time point. […]
To more directly test whether TGFβ could moderate contraction of fibroblasts via the αPDGFR, the response of the three cell lines to purified TGFβ was examined. […] The gel diameter was measured after 24, 48, or 72 hours, and the media was replaced every day.

GST-PLCγ = assay: In vitro kinase assay of immunoprecipitated mutant αPDGFRs with exogenous substrate; assay type: biochemical; conditions: 292 immunoprecipitates, [32P]-γ ATP, 30° C., 5 min
Protocol: Mutant αPDGFRs were selectively immunoprecipitated with the 292 antibody, and samples representing 2×10^5 cells from 292 antibodies were subjected to an in vitro kinase assay. Immunoprecipitates were preincubated with 2 μg of GST protein for 10 min at 0° C., then 2 μg of Glutathione S-transferase fusion phospholipase C-gamma (GST-PLCγ, an exogenous substrate, 10 μCi of γ-[^32P] ATP (DuPont NEN Research Products, Boston, Mass.), and universal kinase buffer (UKB; 20 mM Pipes, pH 7.0, 10 mM MnCl2, 20 μg/ml aprotinin) were added. The samples were incubated at 30° C. for 5 min. The proteins were separated by 7.5% sodium dodecyl sulfate-polyacrylamide gel electrophoresis (SDS-PAGE), the gel was dried, and the radiolabeled protein was detected by autoradiography.

F cells = assay: Collagen gel contraction assay of F cells expressing αPDGFR mutants; assay type: cell-based, mouse; conditions: PDGF-BB (50 ng/ml), 48 hours
Protocol: The contraction assay was based on a previously described reference, Skuta, G. et al. (1999) J. Biol. Chem. 274:30163, with the following modifications. Fα cells were suspended in 1.5 mg/ml of neutralized collagen I (Cohesion vitrogen 100, Palo Alto, Calif.) at a density of 10^6 cells/ml, and were transferred into the 24-well plate (Falcon, Franklyn Lakes, N.J.) that had been preincubated with phosphate-buffer saline (PBS) with 5 mg/ml of bovine serum albumin (BSA) overnight. The gel was solidified by incubating at 37° C. for 90 minutes, and then the well was flooded with DMEM+5 mg/ml of BSA supplemented with an amount of vitreous such that the final concentration of vitreous in the culture medium was 1, 5 or 20%. The gels were incubated at 37° C. with 5% CO2. The initial gel diameter was 15 mm. The media was replaced every 24 hours and the gel diameter was measured after 48 hours. The extent of contraction was calculated by subtracting the diameter of the well at 48 hours from the initial diameter (15 mm). Each experimental condition was assayed in triplicate, and at least three independent experiments were performed. Unpaired t-test was performed to detect statistic difference in contraction assay.
To determine the signaling pathways that drive contraction, cells expressing the αPDGFR mutants were subjected to the collagen gel contraction assay described above. Accordingly, F cells expressing the indicated αPDGFRs were subjected to the collagen gel assay in the presence of buffer, PDGF-BB (50 ng/ml), TGFβ1 (1 ng/ml), or FBS (10%). The data presented are the mean±standard deviation measured at the 48 hours time point. Each experimental condition was assayed in triplicate, and at least 3 independent experiments were performed.

rabbit eyes = assay: Rabbit PVR model: F cells expressing αPDGFR mutants injected into the vitreous; assay type: in vivo; conditions: up to 28 days after the surgery
Protocol: PVR was induced in the rabbit eyes as previously described (Andrews, A. et al. (1999) Invest. Ophthalmol. Vis. Sci. 40:2683 and Nakagawa, M. et al. (1995) Invest. Ophthalmol. Vis. Sci. 36:2388). Briefly, gas vitrectomy was performed by injecting 0.4 ml of expanding perfluoropropane gas (C3F8) into the vitreous cavity 4 mm posterior to the corneal limbus under anesthetical condition. Three days later, the rabbits were anesthetized and the pupils were dilated. 0.1 ml DMEM containing 1×10^5 of RCFs expressing empty vector or αPDGFR mutant were injected into the vitreous cavity together with 0.1 ml of PRP using 30 G needle. Ten rabbits underwent surgery for each cell population expressing the empty vector or the truncated, E587K, T665M, D818N, or V859M αPDGFR mutants. One rabbit in the D818N group died just after the surgery, therefore the total number is 9 for this group. The retinal status was evaluated with an indirect ophthalmoscope fitted with a +30 D fundus lens at 1, 4, 7, 14, 21, and 28 days after the surgery. The PVR was graded from 0 through 5 according to the Fastenberg score. Fastenberg, D. M. et al. (1982) Am. J. Ophthalmol. 93:565. The grading is as follows: 0; no abnormality, 1; vitreous strand, 2; traction of the retina, 3; partial retinal detachment (less than 2 quadrant), 4; extended (more than 2 quadrant) but not total retinal detachment, 5; total retinal detachment. All surgeries were performed under aseptic conditions and pursuant to the regulation of the ARVO Statement for the Use of Animals in Ophthalmic and Vision Research. Only the left eye of each rabbit was used for the experiments.
An important component of PVR is the traction force that is generated when cells of the epiretinal membrane contract. To test if the signaling enzymes that are required for contraction in the in vitro assays also participate in PVR, the cells expressing the various αPDGFR mutants, described in the previous Examples, were assayed in a rabbit PVR model, described above. In this model, rabbits first undergo gas vitrectomy, and then cells are coinjected with […]. The formation of an epiretinal membrane and retinal detachment is observed in living animals over 28 days.
Briefly, PVR was induced by introducing F cells expressing the indicated αPDGFR into the vitreous of the rabbit eyes. The PVR score was evaluated up to 28 days after the surgery according to the classification described above. The mean value and standard error of the scores in a group were indicated. Each group contained 9 or 10 rabbits; the response to parental F cells was previously reported (Andrews et al., supra), and was included here for comparison purposes.

SHP-2 = assay: Co-immunoprecipitation of SHP-2 with αPDGFR mutants in F cells; assay type: cell-based, mouse; conditions: 50 ng/ml PDGF-BB, 5 minutes
Protocol: (§1) The ability of the αPDGFR mutants to undergo ligand dependent tyrosine phosphorylation and to associate with signaling enzymes was then tested. F cells expressing various αPDGFR mutants were grown to subconfluence and serum starved overnight. Cells were either left resting (−) or stimulated with 50 ng/ml PDGF-BB (+) for 5 minutes, and lysed. The αPDGFR was immunoprecipitated with αPDGFR antibody, as described above, and the resulting immunoprecipitates were resolved by 7.5% SDS-PAGE and transferred onto Immobilon. The segment of the blot containing the αPDGFR was first blotted with anti-phosphotyrosine antibodies, then stripped and reprobed with an anti-αPDGFR antibody. Portions of the membrane that contained the proteins of the appropriate molecular mass were immunoblotted for PLCγ, the regulatory subunit of PI3K (p85), or SHP-2. Crude rabbit anti-p85 antibody is from Dr. A. Toker (Beth Israel Hospital/Harvard Medical School, Boston, Mass.). The monoclonal antibodies against PLCγ and SHP-2 were purchased from Upstate Biotechnology Inc.

PLCγ = assay: Co-immunoprecipitation of PLCγ with αPDGFR mutants in F cells; assay type: cell-based, mouse; conditions: 50 ng/ml PDGF-BB, 5 minutes
Protocol: as §1

T1 sequence (P16234 24-1089): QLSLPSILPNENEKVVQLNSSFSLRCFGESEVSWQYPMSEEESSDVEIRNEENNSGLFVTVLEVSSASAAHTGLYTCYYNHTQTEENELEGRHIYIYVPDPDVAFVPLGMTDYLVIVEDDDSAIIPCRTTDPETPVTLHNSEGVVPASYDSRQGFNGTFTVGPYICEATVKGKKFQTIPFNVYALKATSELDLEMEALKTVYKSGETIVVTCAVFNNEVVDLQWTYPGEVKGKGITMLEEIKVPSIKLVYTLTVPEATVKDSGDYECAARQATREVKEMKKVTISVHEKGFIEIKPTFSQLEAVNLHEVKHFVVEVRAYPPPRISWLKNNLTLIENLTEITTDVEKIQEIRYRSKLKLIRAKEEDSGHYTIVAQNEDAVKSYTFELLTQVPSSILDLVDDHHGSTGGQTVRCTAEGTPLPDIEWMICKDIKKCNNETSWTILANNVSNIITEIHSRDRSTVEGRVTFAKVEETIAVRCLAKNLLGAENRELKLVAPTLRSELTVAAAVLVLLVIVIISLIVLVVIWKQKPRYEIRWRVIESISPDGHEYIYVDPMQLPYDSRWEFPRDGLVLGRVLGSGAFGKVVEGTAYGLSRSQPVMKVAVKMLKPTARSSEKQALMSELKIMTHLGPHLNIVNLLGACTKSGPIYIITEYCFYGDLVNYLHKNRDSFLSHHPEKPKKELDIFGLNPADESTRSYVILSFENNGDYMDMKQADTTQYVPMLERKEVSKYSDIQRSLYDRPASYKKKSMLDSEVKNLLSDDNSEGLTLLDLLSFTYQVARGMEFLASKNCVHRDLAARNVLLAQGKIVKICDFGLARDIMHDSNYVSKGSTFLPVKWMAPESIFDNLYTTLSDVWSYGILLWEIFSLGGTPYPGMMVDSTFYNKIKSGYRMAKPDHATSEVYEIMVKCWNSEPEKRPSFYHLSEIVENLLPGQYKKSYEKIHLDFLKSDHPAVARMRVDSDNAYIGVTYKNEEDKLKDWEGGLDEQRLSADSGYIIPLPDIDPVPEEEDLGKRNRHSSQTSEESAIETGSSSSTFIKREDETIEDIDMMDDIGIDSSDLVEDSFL

| Substance | kinase activity towards exogenous substrate GST-PLCγ (GST-PLCγ) | PDGF-dependent contraction (F cells) | potential to induce PVR (PVR score) (rabbit eyes) | also measured |
| --- | --- | --- | --- | --- |
| PDGF |  |  |  | tyrosine phosphorylation of the αPDGFR (αPDGFR): greatly increased the receptor's phosphotyrosine content; PDGF-induced contraction (FCX^2, Fα and Fβ cells): triggered the same extent of contraction of the Fα and Fβ cells |
| T665M: human αPDGFR point mutant, threonine at position 665 changed to methionine; SEQ ID NO: 6 | more active than the WT receptor |  |  |  |
| E587K: human αPDGFR point mutant, glutamic acid at position 587 changed to lysine; SEQ ID NO: 4 | comparable to the WT receptor |  |  |  |
| F720: αPDGFR mutant, Tyr to Phe substitution at 720 |  | somewhat reduced response | induced PVR similarly to the WT receptor-expressing cells | recruitment of SHP-2 (Properties) (SHP-2): failed to efficiently associate; also recorded: Fails to recruit SHP-2 |
| F1018: αPDGFR mutant, Tyr to Phe substitution at 1018 |  | severely compromised contraction | significantly reduced | recruitment or activation of PLCγ (Properties) (PLCγ): failed to efficiently associate; also recorded: Fails to recruit or activate |
